In patent US20170072024A1, “ANTIMICROBIAL COMPOSITION COMPRISING A CARBOHYDRATE, GLUCOSE OXIDASE AND ZINC OXIDE” (MELIPHARM, priority 2014, published 2017):

How the values were obtained:
S. aureus = experiment: Bacterial proliferation test, 96 well microplate (OD 450 nm, 24 h); assay type: cell-based; details: positive control = 100% proliferation
Experimental: (§1) The microbial strains used for the tests are the following bacteria: • P. aeruginosa • S. aureus The tests were conducted on microplates to evaluate the MIC (Minimum Inhibitory Concentration). […] Each well is inoculated with 50 μL of bacterial suspension to be tested in a Muller-Hinton (MH) broth+150 μL of diluted test product solution. […] Each specimen is tested in triplicate. The optical densities (OD) are read a first time at time 0 (T0) at 450 nm. The plates are then incubated for 24 h at 37° C. with agitation. At the end of incubation, the OD is measured again at 450 nm (T24). The proliferation percentage is calculated as follows: Proliferation=(DOT24−DOT0)/(DOT24Control+−DOT0Control+)

P. aeruginosa = experiment: as above; assay type: cell-based; details: positive control = 100% proliferation
Experimental: as §1

Compound	proliferation percentage of S. aureus (S. aureus; formula at 1.5% (v/v)) [%]	proliferation percentage of S. aureus (S. aureus; formula at 3% (v/v)) [%]	proliferation percentage of S. aureus (S. aureus; formula at 6% (v/v)) [%]	proliferation percentage of S. aureus (S. aureus; formula at 9% (v/v)) [%]	proliferation percentage of P aeruginosa (P. aeruginosa; formula at 1.5% (v/v)) [%]	proliferation percentage of P aeruginosa (P. aeruginosa; formula at 3% (v/v)) [%]	proliferation percentage of P aeruginosa (P. aeruginosa; formula at 6% (v/v)) [%]	proliferation percentage of P aeruginosa (P. aeruginosa; formula at 9% (v/v)) [%]
O=C[C@H](O)[C@@H](O)[C@H](O)[C@H](O)CO [Formula 9, glucose]	96	86	83	72	100	206	206	113
glucose oxidase [Formula 8]	81	72	54	46	96	96	91	86
